Tests used:
Format in all cases: functional
CCRF-CEM = assay: Growth inhibition of human CCRF-CEM cells after 48 hrs by SRB protein assay
EKVX = assay: Growth inhibition of human EKVX cells after 48 hrs by SRB protein assay
HOP-62 = assay: Growth inhibition of human HOP62 cells after 48 hrs by SRB protein assay; details: HOP-62, 48 h
HOP-92 = assay: Growth inhibition of human HOP92 cells after 48 hrs by SRB protein assay; details: HOP-92, 48 h
NCI-H23 = assay: Growth inhibition of human NCI-H23 cells after 48 hrs by SRB protein assay; details: NCI-H23, 48 h
NCI-H460 = assay: Growth inhibition of human NCI-H460 cells after 48 hrs by SRB protein assay; details: NCI-H460, 48 h
NCI-H522 = assay: Growth inhibition of human NCI-H522 cells after 48 hrs by SRB protein assay; details: NCI-H522, 48 h
COLO 205 = assay: Growth inhibition of human COLO205 cells after 48 hrs by SRB protein assay; details: COLO 205, 48 h
HCC 2998 = assay: Growth inhibition of human HCC2998 cells after 48 hrs by SRB protein assay; details: HCC 2998, 48 h
HCT-116 = assay: Growth inhibition of human HCT116 cells after 48 hrs by SRB protein assay; details: HCT-116, 48 h
HCT-15 = assay: Growth inhibition of human HCT15 cells after 48 hrs by SRB protein assay; details: HCT-15, 48 h
HT-29 = assay: Growth inhibition of human HT29 cells after 48 hrs by SRB protein assay; details: HT-29, 48 h
KM12 = assay: Growth inhibition of human KM12 cells after 48 hrs by SRB protein assay; details: KM12, 48 h
SW-620 = assay: Growth inhibition of human SW620 cells after 48 hrs by SRB protein assay; details: SW-620, 48 h
SF-268 = assay: Growth inhibition of human SF268 cells after 48 hrs by SRB protein assay; details: SF-268, 48 h
SF-539 = assay: Growth inhibition of human SF539 cells after 48 hrs by SRB protein assay; details: SF-539, 48 h
SNB-19 = assay: Growth inhibition of human SNB19 cells after 48 hrs by SRB protein assay; details: SNB-19, 48 h
SNB-75 = assay: Growth inhibition of human SNB75 cells after 48 hrs by SRB protein assay; details: SNB-75, 48 h
M14 = assay: Growth inhibition of human M14 cells after 48 hrs by SRB protein assay; details: M14, 48 h
SK-MEL-28 = assay: Growth inhibition of human SK-MEL-28 cells after 48 hrs by SRB protein assay; details: SK-MEL-28, 48 h
UACC-257 = assay: Growth inhibition of human UACC257 cells after 48 hrs by SRB protein assay; details: UACC-257, 48 h
UACC-62 = assay: Growth inhibition of human UACC62 cells after 48 hrs by SRB protein assay; details: UACC-62, 48 h
IGROV-1 = assay: Growth inhibition of human IGROV1 cells after 48 hrs by SRB protein assay; details: IGROV-1, 48 h
OVCAR-3 = assay: Growth inhibition of human OVCAR-3 cells after 48 hrs by SRB protein assay; details: OVCAR-3, 48 h
OVCAR-8 = assay: Growth inhibition of human OVCAR8 cells after 48 hrs by SRB protein assay; details: OVCAR-8, 48 h
SK-OV-3 = assay: Growth inhibition of human SK-OV-3 cells after 48 hrs by SRB protein assay; details: SK-OV-3, 48 h
CAKI-1 = assay: Growth inhibition of human CAKI1 cells after 48 hrs by SRB protein assay; details: CAKI-1, 48 h
RXF 393 = assay: Growth inhibition of human RXF393 cells after 48 hrs by SRB protein assay; details: RXF 393, 48 h
SN12C = assay: Growth inhibition of human SN12C cells after 48 hrs by SRB protein assay
UO-31 = assay: Growth inhibition of human UO31 cells after 48 hrs by SRB protein assay; details: UO-31, 48 h
PC-3 = assay: Growth inhibition of human PC3 cells after 48 hrs by SRB protein assay; details: PC-3, 48 h
DU-145 = assay: Growth inhibition of human DU145 cells after 48 hrs by SRB protein assay; details: DU-145, 48 h
MCF7 = assay: Growth inhibition of human MCF7 cells after 48 hrs by SRB protein assay; details: MCF7, 48 h
MDA-MB-231 = assay: Growth inhibition of MDA-MB-231 cells after 48 hrs by SRB protein assay; details: Homo sapiens, MDA-MB-231, 48 h
Hs-578T = assay: Growth inhibition of human HS578T cells after 48 hrs by SRB protein assay
MDA-MB-435 = assay: Growth inhibition of human MDA-MB-435 cells after 48 hrs by SRB protein assay; details: MDA-MB-435, 48 h
SK-MEL-5 = assay: Growth inhibition of human SK-MEL-5 cells after 48 hrs by SRB protein assay; details: SK-MEL-5, 48 h
T47D = assay: Growth inhibition of human T47D cells after 48 hrs by SRB protein assay
OVCAR-5 = assay: Growth inhibition of human OVCAR5 cells after 48 hrs by SRB protein assay; details: OVCAR-5, 48 h

## O=C(Cc1csc2nc(-c3ccc(Br)cc3)cn12)N/N=C/c1ccccc1
CCRF-CEM
  GI50: 17.4 µM
CCRF-CEM; read-out: Log TGI (converted)
  TGI: > 100 µM
EKVX
  GI50: 6.92 µM
EKVX; read-out: Log TGI (converted)
  TGI: 52.5 µM
HOP-62
  GI50: 15.1 µM
HOP-62; read-out: Log TGI (converted)
  TGI: 39.8 µM
HOP-92
  GI50: 12.3 µM
HOP-92; read-out: Log TGI (converted)
  TGI: 37.2 µM
NCI-H23
  GI50: 12.6 µM
NCI-H23; read-out: Log TGI (converted)
  TGI: 61.7 µM
NCI-H460
  GI50: 52.5 µM
NCI-H460; read-out: Log TGI (converted)
  TGI: > 100 µM
NCI-H522
  GI50: 14.1 µM
NCI-H522; read-out: Log TGI (converted)
  TGI: 60.3 µM
COLO 205
  GI50: 66.1 µM
COLO 205; read-out: Log TGI (converted)
  TGI: > 100 µM
HCC 2998
  GI50: 13.2 µM
HCC 2998; read-out: Log TGI (converted)
  TGI: 49 µM
HCT-116
  GI50: 9.33 µM
HCT-116; read-out: Log TGI (converted)
  TGI: 21.4 µM
HCT-15
  GI50: 16.2 µM
HCT-15; read-out: Log TGI (converted)
  TGI: > 100 µM
HT-29
  GI50: 43.7 µM
HT-29; read-out: Log TGI (converted)
  TGI: > 100 µM
KM12
  GI50: 26.3 µM
KM12; read-out: Log TGI (converted)
  TGI: > 100 µM
SW-620
  GI50: 18.6 µM
SW-620; read-out: Log TGI (converted)
  TGI: 63.1 µM
SF-268
  GI50: > 100 µM
SF-268; read-out: Log TGI (converted)
  TGI: > 100 µM
SF-539
  GI50: 16.2 µM
SF-539; read-out: Log TGI (converted)
  TGI: 39.8 µM
SNB-19
  GI50: 43.7 µM
SNB-19; read-out: Log TGI (converted)
  TGI: > 100 µM
SNB-75
  GI50: 31.6 µM
SNB-75; read-out: Log TGI (converted)
  TGI: 89.1 µM
M14
  GI50: 20.9 µM
M14; read-out: Log TGI (converted)
  TGI: > 100 µM
SK-MEL-28
  GI50: > 100 µM
SK-MEL-28; read-out: Log TGI (converted)
  TGI: > 100 µM
UACC-257
  GI50: 6.17 µM
UACC-257; read-out: Log TGI (converted)
  TGI: 31.6 µM
UACC-62
  GI50: 11.5 µM
UACC-62; read-out: Log TGI (converted)
  TGI: 28.2 µM
IGROV-1
  GI50: 11.2 µM
IGROV-1; read-out: Log TGI (converted)
  TGI: 32.4 µM
OVCAR-3
  GI50: 24 µM
OVCAR-3; read-out: Log TGI (converted)
  TGI: 46.8 µM
OVCAR-8
  GI50: 2.34 µM
OVCAR-8; read-out: Log TGI (converted)
  TGI: 20.4 µM
SK-OV-3
  GI50: 66.1 µM
SK-OV-3; read-out: Log TGI (converted)
  TGI: > 100 µM
CAKI-1
  GI50: 30.2 µM
CAKI-1; read-out: Log TGI (converted)
  TGI: 81.3 µM
RXF 393
  GI50: 14.5 µM
RXF 393; read-out: Log TGI (converted)
  TGI: 38.9 µM
SN12C
  GI50: 13.2 µM
SN12C; read-out: Log TGI (converted)
  TGI: 39.8 µM
UO-31
  GI50: 57.5 µM
UO-31; read-out: Log TGI (converted)
  TGI: > 100 µM
PC-3
  GI50: 20.4 µM
PC-3; read-out: Log TGI (converted)
  TGI: > 100 µM
DU-145
  GI50: 14.5 µM
DU-145; read-out: Log TGI (converted)
  TGI: 44.7 µM
MCF7
  GI50: 75.9 µM
MCF7; read-out: Log TGI (converted)
  TGI: > 100 µM
MDA-MB-231
  GI50: 12.9 µM
MDA-MB-231; read-out: Log TGI (converted)
  TGI: 57.5 µM
Hs-578T
  GI50: 16.2 µM
Hs-578T; read-out: Log TGI (converted)
  TGI: 51.3 µM
MDA-MB-435
  GI50: 12 µM
MDA-MB-435; read-out: Log TGI (converted)
  TGI: 51.3 µM
SK-MEL-5
  GI50: 5.62 µM
SK-MEL-5; read-out: Log TGI (converted)
  TGI: 26.9 µM
T47D
  GI50: 37.2 µM
T47D; read-out: Log TGI (converted)
  TGI: > 100 µM
OVCAR-5
  GI50: 30.9 µM
OVCAR-5; read-out: Log TGI (converted)
  TGI: > 100 µM

Reference: ChEMBL document CHEMBL1143799, “Synthesis and primary cytotoxicity evaluation of new imidazo[2,1-b]thiazole derivatives” (2007)
